In patent US11452713B2, “Chemotherapeutic methods for treating low-proliferative disseminated tumor cells” (University of Florida Research Foundation, Incorporated, priority 2016, dated 2022):
Entries after “also recorded” stand apart in the source; their conditions may differ.

What was measured:
[1] = cited from earlier work
TWIST1-positive cells = assay: Sensitivity of TWIST1-positive cells to Taxol with or without SB203580 pretreatment; format: cell-based
From the text: (§1) SNAIL1 represses TWIST1 during EMT initiation. TWIST1 maintains EMT by creating a low ERK:p38 signaling ratio (high p38 activity). Thus high SNAIL1 levels in primary tumors would induce EMT while high TWIST1 levels would maintain EMT in metastatic cells and possibly contribute to lpDTCs in metastatic sites (FIG. 1).

BM DTCs [2] = assay: BM DTC count and lpDTC fraction in ErbB2-induced mouse breast cancer model after single-agent treatment; format: in vivo; conditions: for BM DTC count: FIG. 8A, p<0.05; for fraction of BM lpDTCs (TWIST1+; p-p38+; BrdU- DTCs over total BM DTCs): FIG. 8B
From the text: FIGS. 8A-8B show the dormant TWIST1^+; p-p38; BrdU-DTCs resistance to cytotoxic drugs in ErbB2-induced mouse breast cancer model.
Of these TWIST1-positive BM DTCs, nearly 80% (23/29) expressed activated p38 (p-p38) and 70% (20/29) were also growth arrested as measured by a lack of BrdU incorporation (FIG. 7C-D). In contrast, of the TWIST1-negative DTCs, 94% (67/71) lacked activated p38 and 77% (55/71) were also actively proliferating. Therefore TWIST1-positive; p-p38-positive; BrDU-negative cells represent the fraction of true lpDTCs in these models. To confirm that these BM lpDTCs were resistant to cytotoxic agents and that p38 plays a critical role in their growth arrest, these mice were treated with either SB203085 (10 μmol/kg IP BID×7 days) or the cytotoxic drug paclitaxel (Taxol, 10 mg/kg IP once) and measured the number of all BM DTCs and the fraction of lpDTCs (ratio of TWIST1+; p-p38+; BrdU-DTCs over total BM DTCs). […] ErbB2- or PyMT-induced breast tumor mice were untreated or treated with either Taxol alone or a combination of SB203085 plus Taxol with SB203085 starting 72 hrs prior to and ending 72 hrs after each dose of Taxol (FIG. 9). Three 21-day cycles of chemotherapy were given. Total BM DTCs were determined prior to and 1 week after treatment ended.

BM DTCs [3] = assay: p38 inhibitor plus Taxol in PyMT-induced breast tumor mice: total BM DTCs and overall survival; format: in vivo, mouse; conditions: MMTV-PyMT mice; SB203085 72 hrs prior to until 72 hrs after each Taxol dose, 3 cycles; vs Taxol alone and untreated
Procedure: FIGS. 9A-9B show the p38 inhibition increase the DTCs' sensitivity to cytotoxic chemotherapy. DTCs-bearing PyMT-induced breast tumor mice were either untreated or treated with Taxol alone (10 mg/kg) or with SB203085 (10 μg/kg) followed by Taxol. Taxol was given IP every 3 weeks for 3 cycles. SB203085 was given IP BID starting 72 hours prior to Taxol and continuing until 72 hours after Taxol infusion. Ten mice were included in each reference group. FIGS. 9A and B show the overall survival (A) and total BM DTCs (B) before and after chemo were determined.
Of these TWIST1-positive BM DTCs, nearly 80% (23/29) expressed activated p38 (p-p38) and 70% (20/29) were also growth arrested as measured by a lack of BrdU incorporation (FIG. 7C-D). In contrast, of the TWIST1-negative DTCs, 94% (67/71) lacked activated p38 and 77% (55/71) were also actively proliferating. […] To confirm that these BM lpDTCs were resistant to cytotoxic agents and that p38 plays a critical role in their growth arrest, these mice were treated with either SB203085 (10 μmol/kg IP BID×7 days) or the cytotoxic drug paclitaxel (Taxol, 10 mg/kg IP once) and measured the number of all BM DTCs and the fraction of lpDTCs (ratio of TWIST1+; p-p38+; BrdU-DTCs over total BM DTCs). […] Total BM DTCs were determined prior to and 1 week after treatment ended. […]

[4] = test system: TWIST1-overexpressing cells; assay: Reversal of TWIST1-dependent growth arrest by p38 inhibition; format: cell-based; conditions: FIG. 4A
From the text: TWIST1 was overexpressed so as to achieve maximal TWIST1 effect, thereby avoiding the confounding problem of added TGFβ1. TWIST1 overexpression alone generated vigorous TGFβ1-independent EMT and led to 2-3 fold lower ERK:p38 signaling ratio (i.e. high p38 activity) compared to the empty vector (FIG. 3D).
as §1

## CNC(=O)c1ccc(C)c(-n2c(C)cc(OCc3ccc(F)cc3F)c(Br)c2=O)c1 [PH797804, 3-(4-(2,4-difluorobenzyloxy)-3-bromo-6-methyl-2-oxopyridin-1(2H)-yl)-N,4-dimethylbenzamide]
[1]; 4 dose levels 0.5, 3, 6 and 10 mg PO qday
  tolerability: well tolerated
[1]; phase 2 trial in emphysema
  most common side effect: skin rash: ~1%
  severe adverse events: No significant severe adverse events

## CC(=O)O[C@H]1C(=O)[C@@]2(C)[C@H]([C@H](OC(=O)c3ccccc3)[C@]3(O)C[C@H](OC(=O)[C@H](O)[C@@H](NC(=O)c4ccccc4)c4ccccc4)C(C)=C1C3(C)C)[C@]1(OC(C)=O)CO[C@@H]1C[C@@H]2O [Taxol, paclitaxel]
TWIST1-positive cells; non-pretreated, FIG. 4B
  IC50: > 40 nM
TWIST1-positive cells; pretreatment with SB203580, FIG. 4B
  IC50: 6.1 nM
BM DTCs [2]; 10 mg/kg IP once
  decrease of total DTC number: ~2.5 fold
BM DTCs [2]
  BM DTC count: decreases
  fraction of BM lpDTCs (TWIST1+; p-p38+; BrdU- DTCs over total BM DTCs): enriches; also recorded: significantly increased

## C[S+]([O-])c1ccc(-c2nc(-c3ccc(F)cc3)c(-c3ccncc3)[nH]2)cc1 (centres unmarked) [SB203580, 4-(4-Fluorophenyl)-2-(4-methylsulfinylphenyl)-5-(4-pyridyl)-1H-imidazole]
BM DTCs [3]
  overall survival: increased overall survival
  total BM DTCs: significantly reduced total BM DTCs
BM DTCs [2]; 10 μmol/kg IP BID x 7 days
  increase of number of total BM DTCs compared to non-treated animals: > 4 fold
BM DTCs [2]
  BM DTC count: increases
BM DTCs [2]; listed as SB203085
  fraction of BM lpDTCs (TWIST1+; p-p38+; BrdU- DTCs over total BM DTCs): decreased
[4]
  TWIST1-dependent growth arrest: reversed TWIST1-dependent growth arrest in a dose dependent manner
